The text below walks through data of patent publication US5106407A, “Iodones and methods for antimicrobial use” (priority 1989, dated 1992).

One test relates to Bacillus subtilis. Put plainly: minimum inhibitory concentration (MIC), agar dilution. It counts as cell-based. The settings on record: for MIC: Bacillus subtilis. As for the experimental part:
(§1) The minimum inhibitory concentration (MIC) for the compound of Example 19, i.e., (2-nitrophenyl)-iodonium 2,2-dimethyl-4,6-dioxo-1,3-dioxan-5-ylide was determined for 9 bacteria (using nutrient agar) and 5 yeast and fungi (using malt yeast agar). A one percent solution of this test compound (i.e., the compound of Example 19) was prepared in a mixture of acetone-water. Nutrient agar was prepared at pH 6.8 using deionized water according to standard Difco procedures. Malt yeast agar was prepared by adding 3 g Bacto yeast extract and 42 g Bacto Malt agar per liter of deionized water. The agar (nutrient agar when testing with bacteria and malt yeast agar when testing with yeast and fungi) was dispensed in 30 mL aliquots into 25×200 millimeter (mm) test tubes, capped and autoclaved for 15 min at 115° C. The test tubes containing the agar were cooled in a water bath until the temperature of the agar was 48° C. and then an appropriate amount of the one percent solution of the test compound was added (except in the controls where no test compound was added with the acetone-water) to the respective test tubes so that final concentrations of 500, 250, 100, 50, 25, 10, 5, 2.5, 1.0 and 0 parts per million (ppm) of the test compound in the agar were obtained. The agar solutions were each mixed and poured into individual petri plates so that each petri plate contained agar having a known concentration of test compound dispersed therein. After drying for 24 hr, the petri plates were inoculated with bacteria when the petri plates contained nutrient broth agar or with fungi and yeast when the petri plates contained malt yeast agar.
(§2) The inoculation with bacteria was accomplished using the following procedure. Twenty-four hr cultures of each of the bacteria were prepared by incubating the respective bacteria in tubes containing nutrient broth for 24 hr at 30° C. in a shaker. Dilutions of each of the 24 hr cultures were made so that 9 separate suspensions (one for each of the 9 test bacteria) were made, each containing about 10^8 colony forming units (CFU) per mL of suspension of a particular bacteria. Aliquots of 0.3 mL of each of the above suspensions were used to fill individual wells of a Steer's Replicator. For each microbial suspension, 0.3 mL was used to fill 3 wells (i.e., 3 wells of 0.3 mL each) so that for the 9 different bacteria 27 wells were filled. The Steer's Replicator was then used to inoculate the petri plates.
(§3) The petri plates were incubated at 30° C. for 48 hr and then read to determine if the test compound (i.e., the compound of Example 19) which was incorporated into the agar prevented growth of the respective bacteria. The minimum inhibitory concentration (MIC) for each bacteria was defined as the lowest concentration of the test compound which prevented growth of that bacteria.
(§4) In a similar procedure, the MIC (in ppm) of the compound of Example 11 (i.e., (2-nitrophenyl)-iodonium 2,6-dioxocyclohexylide) for various organisms was determined at an acid pH (about 6.8) and at an alkaline pH (about 8.2).
(§5) Using similar procedures, the MIC's (in ppm) of various compounds of Formula I and/or Formula II were determined for the organisms Enterobacter aerogenes and Bacillus subtilis in a neutral solution (pH about 6.8) and in an alkaline medium (pH about 8.2).
(In general: In agar dilution, organisms are placed on agar that contains the substance at set levels.)

The next test concerns Enterobacter aerogenes. Described as above. It counts as cell-based. The settings on record: for MIC: Klebsiella aerogenes. As for the experimental part: as §1, §2, §3, §4, §5
The mark [1] stands for this setting: alkaline growth medium (pH = 8.2), read-out: MIC (ABS).
Setting [2] is: neutral growth medium (pH = 6.8), read-out: MIC (NBS).
The mark [3] stands for this setting: alkaline growth medium (pH = 8.2), read-out: MIC (AEA).
Where [4] appears, read: neutral growth medium (pH = 6.8), read-out: MIC (NEA).
[5] abbreviates: alkaline growth medium (pH = 8.2).
Where [6] appears, read: neutral growth medium (pH = 6.8).

Converted amounts (≈) assume the structure as drawn. Like-named read-outs stand apart in the source and are kept apart here.

One may read the MIC as the smallest concentration in the dilution series that meets the test's criterion for growth inhibition. `O=C1CCC(=O)[C-]1[I+]c1ccccc1[N+](=O)[O-]` [Example 10, (2-Nitrophenyl)-iodonium 2,5-dioxocyclopentyl-1-ylide]: the MIC was greater than 500 µg/mL in the test on Bacillus subtilis (setting [1]), 25 µg/mL (≈ 72.4 µM) with Bacillus subtilis (setting [2]), greater than 500 µg/mL with Enterobacter aerogenes (setting [3]) and no more than 10 µg/mL with Enterobacter aerogenes (setting [4]).
`CC1(C)CC(=O)[C-]([I+]c2ccccc2S(C)(=O)=O)C(=O)C1` [Example 12, ((2-Methylsulfonyl)phenyl)-iodonium 4,4-dimethyl-2,6-dioxocyclohexan-1-ylide]: the MIC in the test with Bacillus subtilis (setting [1]) is 100 µg/mL (≈ 238 µM); in the test on Bacillus subtilis (setting [2]), 250 µg/mL (≈ 595 µM); in the test on Enterobacter aerogenes (setting [3]), greater than 500 µg/mL; with Enterobacter aerogenes (setting [4]) it was greater than 500 µg/mL.
Take `CC1(C)CC(=O)[C-]([I+]c2ccccc2[N+](=O)[O-])C(=O)C1` [Example 14, (2-Nitrophenyl)-iodonium 4,4-dimethyl-2,6-dioxocyclohexylide]: the MIC is no more than 1 µg/mL in the test with Bacillus subtilis (setting [1]), 2.5 µg/mL (≈ 6.46 µM) in the test with Bacillus subtilis (setting [2]), no more than 1 µg/mL in the test with Enterobacter aerogenes (setting [3]) and 2.5 µg/mL (≈ 6.46 µM) with Enterobacter aerogenes (setting [4]).
In the case of `CC1CC(=O)[C-]([I+]c2ccccc2[N+](=O)[O-])C(=O)C1` [Example 15, (2-Nitrophenyl)-iodonium 4-methyl-2,6-dioxocyclohexan-1-ylide], the MIC with Bacillus subtilis (setting [1]) is no more than 10 µg/mL; with Bacillus subtilis (setting [2]) it was no more than 10 µg/mL; with Enterobacter aerogenes (setting [3]) it was 100 µg/mL (≈ 268 µM); in the test with Enterobacter aerogenes (setting [4]) it was no more than 10 µg/mL.
In the case of `Cc1ccc([I+][C-]2C(=O)OC(C)(C)OC2=O)c([N+](=O)[O-])c1` [Example 16, (4-Methyl-2-nitrophenyl)-iodonium 2,2-dimethyl-4,6-dioxo-1,3-dioxan-5-ylide], the MIC was 5 µg/mL (≈ 12.3 µM) with Bacillus subtilis (setting [1]), 2.5 µg/mL (≈ 6.17 µM) with Bacillus subtilis (setting [2]), 10 µg/mL (≈ 24.7 µM) in the test with Enterobacter aerogenes (setting [3]) and 2.5 µg/mL (≈ 6.17 µM) in the test on Enterobacter aerogenes (setting [4]).
With `Cc1ccc(I=C2C(=O)OC(C)(C)OC2=O)c([N+](=O)[O-])c1C` [Example 17, (3,4-Dimethyl-2-nitrophenyl)-iodonium 2,2-dimethyl-4,6-dioxo-1,3-dioxan-5-ylide], in the test on Bacillus subtilis (setting [5]), the “MIC (ABS)” value was less than 10 ppm. Further, the “MIC (NBS)” value against Bacillus subtilis (setting [6]) is listed as less than 10 ppm. For the same compound, the “MIC (AEA)” value against Enterobacter aerogenes (setting [5]) came to 25 ppm. In addition, the “MIC (NEA)” value with Enterobacter aerogenes (setting [6]) is given as 25 ppm.
With `CC1(C)OC(=O)[C-]([I+]c2ccc(Cl)cc2[N+](=O)[O-])C(=O)O1` [Example 18, (4-chloro-2-nitrophenyl)-iodonium 2,2-dimethyl-4,6-dioxo-1,3-dioxan-5-ylide], the MIC came to 250 µg/mL (≈ 587 µM) in the test on Bacillus subtilis (setting [1]), 100 µg/mL (≈ 235 µM) with Bacillus subtilis (setting [2]), 250 µg/mL (≈ 587 µM) in the test with Enterobacter aerogenes (setting [3]) and 100 µg/mL (≈ 235 µM) with Enterobacter aerogenes (setting [4]).
Take `COc1ccc([I+][C-]2C(=O)OC(C)(C)OC2=O)c([N+](=O)[O-])c1` [Example 20, (4-Methoxy-2-nitrophenyl)-iodonium 2,2-dimethyl-4,6-dioxo-1,3-dioxan-5-ylide]: the minimal inhibitory concentration (MIC) in the test with Bacillus subtilis (setting [1]) is 25 µg/mL (≈ 59.4 µM); with Bacillus subtilis (setting [2]), no more than 10 µg/mL; with Enterobacter aerogenes (setting [3]), 25 µg/mL (≈ 59.4 µM); in the test on Enterobacter aerogenes (setting [4]) it was no more than 10 µg/mL.
As to `CC1(C)OC(=O)[C-]([I+]c2ccccc2S(C)(=O)=O)C(=O)O1` [Example 21, ((2-Methylsulfonyl)phenyl)-iodonium 2,2-dimethyl-4,6-dioxo-1,3-dioxan-5-ylide], the MIC with Bacillus subtilis (setting [1]) is 50 µg/mL (≈ 118 µM); in the test on Bacillus subtilis (setting [2]), 25 µg/mL (≈ 58.9 µM); with Enterobacter aerogenes (setting [3]), greater than 500 µg/mL; in the test with Enterobacter aerogenes (setting [4]), greater than 500 µg/mL.
On to `O=c1oc2ccc(F)cc2c(=O)[c-]1[I+]c1ccccc1[N+](=O)[O-]` [Example 22, (2-Nitrophenyl)-iodonium 6-fluoro-3,4-dihydro-2,4-dioxo-2H-benzopyran-3-ylide], for which the MIC is 100 µg/mL (≈ 234 µM) in the test with Bacillus subtilis (setting [1]), no more than 10 µg/mL in the test with Bacillus subtilis (setting [2]), 250 µg/mL (≈ 585 µM) in the test with Enterobacter aerogenes (setting [3]) and no more than 10 µg/mL in the test on Enterobacter aerogenes (setting [4]).
Take `O=c1oc2ccc(Br)cc2c(=O)[c-]1[I+]c1ccccc1[N+](=O)[O-]` [Example 23, (2-Nitrophenyl)-iodonium 6-bromo-3,4-dihydro-2,4-dioxo-2H-benzopyran-3-ylide]: the MIC with Bacillus subtilis (setting [1]) is 250 µg/mL (≈ 512 µM); in the test with Bacillus subtilis (setting [2]) it was 100 µg/mL (≈ 205 µM); in the test on Enterobacter aerogenes (setting [3]), greater than 500 µg/mL; with Enterobacter aerogenes (setting [4]) it was greater than 500 µg/mL.
For the compound `O=C(O)c1ccc2oc(=O)[c-]([I+]c3ccccc3[N+](=O)[O-])c(=O)c2c1` [Example 26, (2-Nitrophenyl)-iodonium 6-carboxy-3,4-diohydro-2,4-dioxo-2H -benzopyran-3-ylide], the MIC was 250 µg/mL (≈ 552 µM) with Bacillus subtilis (setting [1]), no more than 10 µg/mL with Bacillus subtilis (setting [2]), 250 µg/mL (≈ 552 µM) with Enterobacter aerogenes (setting [3]) and 250 µg/mL (≈ 552 µM) with Enterobacter aerogenes (setting [4]).
Turning to `CS(=O)(=O)c1ccccc1[I+][c-]1c(=O)oc2ccc(Cl)cc2c1=O` [Example 27, ((2-Methylsulfonyl)phenyl)-iodonium 6-chloro-3,4-dihydro-2,4-dioxo-2H-benzopyran-3-ylide], the MIC with Bacillus subtilis (setting [1]) is no more than 10 µg/mL; in the test with Bacillus subtilis (setting [2]) it was no more than 10 µg/mL; in the test with Enterobacter aerogenes (setting [3]) it was greater than 500 µg/mL; in the test on Enterobacter aerogenes (setting [4]) it was greater than 500 µg/mL.
As for `COc1ccc2oc(=O)[c-]([I+]c3ccccc3S(C)(=O)=O)c(=O)c2c1` [Example 28, ((2-Methylsulfonyl)phenyl)-iodonium 3,4-dihydro-6-methoxy-2,4-dioxo-2H-benzopyran-3-ylide], the MIC is no more than 10 µg/mL with Bacillus subtilis (setting [1]), no more than 10 µg/mL with Bacillus subtilis (setting [2]), greater than 500 µg/mL in the test with Enterobacter aerogenes (setting [3]) and greater than 500 µg/mL with Enterobacter aerogenes (setting [4]).
Consider `CS(=O)(=O)c1ccccc1[I+][c-]1c(=O)oc2ccc(C(=O)O)cc2c1=O` [Example 29, ((2-Methylsulfonyl)phenyl)-iodonium 6-carboxy-3,4-dihydro-2,4-dioxo-2H-benzopyran-3-ylide], for which the MIC with Bacillus subtilis (setting [1]) was no more than 10 µg/mL; with Bacillus subtilis (setting [2]), no more than 10 µg/mL; in the test on Enterobacter aerogenes (setting [3]), greater than 500 µg/mL; in the test with Enterobacter aerogenes (setting [4]), greater than 500 µg/mL.
For `CS(=O)(=O)c1ccccc1[I+][c-]1c(=O)oc2ccc(Br)cc2c1=O` [Example 30, ((2-Methylsulfonyl)phenyl)-iodonium 6-bromo-3,4-dihydro-2,4-dioxo-2H-benzopyran-3-ylide], the MIC in the test with Bacillus subtilis (setting [1]) is no more than 10 µg/mL; with Bacillus subtilis (setting [2]) it was no more than 10 µg/mL; in the test with Enterobacter aerogenes (setting [3]), greater than 500 µg/mL; in the test with Enterobacter aerogenes (setting [4]) it was greater than 500 µg/mL.
As to `O=c1oc2ccccc2c(=O)[c-]1[I+]c1ccccc1[N+](=O)[O-]` [Example 32, (2-Nitrophenyl)-iodonium 3,4-dihydro-2,4-dioxo-2H-benzopyran-3-ylide], the MIC in the test on Bacillus subtilis (setting [1]) was no more than 10 µg/mL; in the test on Bacillus subtilis (setting [2]), no more than 10 µg/mL; in the test with Enterobacter aerogenes (setting [3]), 25 µg/mL (≈ 61.1 µM); in the test with Enterobacter aerogenes (setting [4]), no more than 10 µg/mL.
With `COc1ccc2oc(=O)[c-]([I+]c3ccccc3[N+](=O)[O-])c(=O)c2c1` [Example 33, (2-Nitrophenyl)-iodonium 3,4-dihydro-6-methoxy-2,4-dioxo-2H-benzopyran-3-ylide], the MIC is no more than 10 µg/mL in the test on Bacillus subtilis (setting [1]), no more than 10 µg/mL with Bacillus subtilis (setting [2]), greater than 500 µg/mL in the test with Enterobacter aerogenes (setting [3]) and greater than 500 µg/mL in the test on Enterobacter aerogenes (setting [4]).
As to `Cc1cccc2c(=O)[c-]([I+]c3ccccc3[N+](=O)[O-])c(=O)oc12` [Example 34, (2-Nitrophenyl)-iodonium 3,4-dihydro-8-methyl-2,4-dioxo-2H-benzopyran-3-ylide], the MIC in the test on Bacillus subtilis (setting [1]) was 25 µg/mL (≈ 59.1 µM); in the test with Bacillus subtilis (setting [2]), no more than 10 µg/mL; in the test with Enterobacter aerogenes (setting [3]) it was 500 µg/mL (≈ 1180 µM); with Enterobacter aerogenes (setting [4]), 500 µg/mL (≈ 1180 µM).
`CCn1c(=O)[c-]([I+]c2ccccc2[N+](=O)[O-])c(=O)n(CC)c1=S` [Example 36, (2-Nitrophenyl)-iodonium 1,3-diethylhexahydro-4,6-dioxo-2-thiopyrimidin-5-ylide]: the MIC in the test on Bacillus subtilis (setting [1]) was greater than 500 µg/mL; in the test on Bacillus subtilis (setting [2]), greater than 500 µg/mL; with Enterobacter aerogenes (setting [3]), greater than 500 µg/mL; in the test with Enterobacter aerogenes (setting [4]), 500 µg/mL (≈ 1120 µM).
In the case of `O=c1[nH]c2ccccc2c(=O)[c-]1[I+]c1ccccc1[N+](=O)[O-]` [Example 41, (2-Nitrophenyl)-iodonium 1,2,3,4-tetrahydro-2,4-dioxoquinolin-3-ylide], the MIC in the test with Bacillus subtilis (setting [1]) was 500 µg/mL (≈ 1230 µM); in the test on Bacillus subtilis (setting [2]), no more than 10 µg/mL; in the test on Enterobacter aerogenes (setting [3]), greater than 500 µg/mL; in the test with Enterobacter aerogenes (setting [4]), no more than 10 µg/mL.
On to “(2-Nitrophenyl)-iodonium 3,4,5,6-tetrahydro-4,6-doxo-5-pyrimidinylide [Example 35]”, for which, in the test with Enterobacter aerogenes (setting [5]), the “MIC (AEA)” value was greater than 500 ppm.
